# Experimental data: patent US11453660B2, “Androgen receptor and glucocorticoid receptor modulators” (ONCOSTELLAE, S.L., priority 2017, dated 2022)
# Tests used:
# human androgen receptor = biological target: T1, human androgen receptor (Homo sapiens, UniProt P10275, T878A); test: Human Androgen Receptor Binding (radioligand binding, LnCap prostate cancer cell line); settings: LnCap cells, displacement of [^3H]-methyltrienolone, 2 hours at 37° C.; read-out: AR LNCaP
# T1 construct: endogenously expressed human androgen receptor using the LnCap prostate cancer cell line; endogenous in cells; host or cells: LNCaP prostate cancer cell line (whole cells)
# T1 sequence (P10275 1-920 T878A): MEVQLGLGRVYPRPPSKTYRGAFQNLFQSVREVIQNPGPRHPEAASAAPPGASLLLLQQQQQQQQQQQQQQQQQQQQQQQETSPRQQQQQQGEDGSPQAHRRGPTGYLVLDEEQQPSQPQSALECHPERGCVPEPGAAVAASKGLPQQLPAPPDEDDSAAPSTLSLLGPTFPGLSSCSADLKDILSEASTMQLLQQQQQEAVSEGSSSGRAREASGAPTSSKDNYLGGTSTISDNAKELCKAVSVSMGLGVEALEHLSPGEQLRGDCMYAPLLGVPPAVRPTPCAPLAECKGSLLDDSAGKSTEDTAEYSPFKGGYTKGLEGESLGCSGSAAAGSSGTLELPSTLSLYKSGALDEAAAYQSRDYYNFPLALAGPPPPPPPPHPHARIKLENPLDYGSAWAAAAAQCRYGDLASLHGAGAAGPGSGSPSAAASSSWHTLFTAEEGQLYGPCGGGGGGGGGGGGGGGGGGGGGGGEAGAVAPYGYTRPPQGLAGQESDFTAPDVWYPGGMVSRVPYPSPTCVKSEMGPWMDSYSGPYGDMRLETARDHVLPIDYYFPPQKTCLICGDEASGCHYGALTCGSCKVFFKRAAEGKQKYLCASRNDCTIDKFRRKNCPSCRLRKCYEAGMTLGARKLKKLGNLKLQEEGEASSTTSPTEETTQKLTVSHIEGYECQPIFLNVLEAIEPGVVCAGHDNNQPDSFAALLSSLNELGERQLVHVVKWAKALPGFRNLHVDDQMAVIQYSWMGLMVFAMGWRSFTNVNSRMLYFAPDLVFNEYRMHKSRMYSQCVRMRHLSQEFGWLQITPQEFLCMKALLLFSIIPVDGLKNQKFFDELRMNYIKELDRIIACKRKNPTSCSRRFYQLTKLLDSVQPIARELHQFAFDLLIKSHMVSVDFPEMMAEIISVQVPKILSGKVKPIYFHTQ
# Procedure, shortened: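 Whole-cell displacement of [3H]-methyltrienolone from endogenous AR (T878A) in LnCap cells, in RPMI with 0.1% BSA and triamcinolone acetonide. Compounds 10 μM to 0.1 nM in 1:10 steps, 2 h at 37 °C; cells washed, SDS-lysed, bound radioactivity by scintillation counting for IC50.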
# [1] = biological target: T2, Human Glucocorticoid Receptor (Homo sapiens, UniProt P04150); test: Competition Binding in IM-9 Human Glucocorticoid Receptor (GR IM-9); settings: cytosol from IM-9 cell line, 1.5 nM [3H]-Dexamethasone, 4° C. for 6 hours
# T2 construct: endogenous in cells; host or cells: cytosol from IM-9 cell line
# T2 sequence (P04150 1-777): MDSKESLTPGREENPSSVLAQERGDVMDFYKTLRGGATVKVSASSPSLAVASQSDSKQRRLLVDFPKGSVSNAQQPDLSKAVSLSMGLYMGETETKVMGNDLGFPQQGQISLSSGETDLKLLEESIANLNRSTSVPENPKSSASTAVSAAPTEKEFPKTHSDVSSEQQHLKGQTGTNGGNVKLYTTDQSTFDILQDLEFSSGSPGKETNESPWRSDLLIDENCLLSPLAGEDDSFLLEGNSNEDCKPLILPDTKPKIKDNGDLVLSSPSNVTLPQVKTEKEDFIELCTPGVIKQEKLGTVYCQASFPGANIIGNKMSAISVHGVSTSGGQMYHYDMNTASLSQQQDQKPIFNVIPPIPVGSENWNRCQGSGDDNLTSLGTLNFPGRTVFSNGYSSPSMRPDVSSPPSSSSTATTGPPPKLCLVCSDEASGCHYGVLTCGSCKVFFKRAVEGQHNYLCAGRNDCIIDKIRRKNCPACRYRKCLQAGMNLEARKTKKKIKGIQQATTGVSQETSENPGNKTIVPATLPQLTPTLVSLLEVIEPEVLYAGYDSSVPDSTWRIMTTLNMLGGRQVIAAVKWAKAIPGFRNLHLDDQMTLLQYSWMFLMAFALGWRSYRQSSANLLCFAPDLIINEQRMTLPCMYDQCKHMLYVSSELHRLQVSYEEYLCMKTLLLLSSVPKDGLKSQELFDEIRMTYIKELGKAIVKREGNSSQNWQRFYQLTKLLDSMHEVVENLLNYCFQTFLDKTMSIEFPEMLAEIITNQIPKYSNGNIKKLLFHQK
# Procedure, shortened: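 Radioligand competition using 100 μg IM-9 cell cytosol and 1.5 nM [3H]-dexamethasone, incubated 6 h at 4° C in TES/molybdate buffer, pH 7.4. Filtration on PEI-treated GF/B filters, scintillation counting; nonspecific binding defined with 10 μM triamcinolone.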
SMILES,IC50 (human androgen receptor) [µM],IC50 [1] [µM]
"CC(=O)C1=C(C)NC(C)=C(C(=O)OCc2ccccc2)C1c1csc2ccccc12 (centres unmarked) [Example B6, Benzyl 5-acetyl-4-(benzo[b]thiophen-3-yl)-2,6-dimethyl-1,4-dihydro-pyridine-3-carboxylate]",≥ 1,0.1 to 1
"CC(=O)C1=C(C)NC(C)=C(C(=O)OCC2CCOCC2)C1c1csc2ccccc12 (centres unmarked) [Example C2, (Tetrahydro-2H-pyran-4-yl)methyl 5-acetyl-4-(benzo[b]thiophen-3-yl)-2,6-dimethyl-1,4-dihydropyridine-3-carboxylate]",≥ 1,0.1 to 1
"CC(=O)C1=C(C)NC(C)=C(C(=O)OCc2ccccc2)C1c1csc2ccc(F)cc12 (centres unmarked) [Example C41, Benzyl 5-acetyl-4-(5-fluorobenzo[b]thiophen-3-yl)-2,6-dimethyl-1,4-dihydropyridine-3-carboxylate]",≥ 1,0.1 to 1
"CC(=O)C1=C(C)NC(C)=C(C(=O)OCc2ccccc2)C1c1csc2ccc(Cl)cc12 (centres unmarked) [Example C42, Benzyl 5-acetyl-4-(5-chlorobenzo[b]thiophen-3-yl)-2,6-dimethyl-1,4-dihydropyridine-3-carboxylate]",≥ 1,< 0.1
"CC(=O)C1=C(C)NC(C)=C(C(=O)OCC2CCOCC2)C1c1csc2ccc(Cl)cc12 (centres unmarked) [Example C43, (Tetrahydro-2H-pyran-4-yl)methyl 5-acetyl-4-(5-chlorobenzo[b]thiophen-3-yl)-2,6-dimethyl-1,4-dihydropyridine-3-carboxylate]",≥ 1,0.1 to 1
"CC(=O)C1=C(C)NC(C)=C(C(=O)OCC2CCOCC2)C1c1csc2ccc(F)cc12 (centres unmarked) [Example C44, (Tetrahydro-2H-pyran-4-yl)methyl 5-acetyl-4-(5-fluorobenzo[b]thiophen-3-yl)-2,6-dimethyl-1,4-dihydropyridine-3-carboxylate]",≥ 1,0.1 to 1
"CC(=O)C1=C(C)NC(C)=C(C(=O)OCc2cccnc2)C1c1csc2ccccc12 (centres unmarked) [Example C48, Pyridin-3-ylmethyl 5-acetyl-4-(benzo[b]thiophen-3-yl)-2,6-dimethyl-1,4-dihydropyridine-3-carboxylate]",≥ 1,0.1 to 1
"CC(=O)C1=C(C)NC(C)=C(C(=O)OCc2ccc(Br)cc2)C1c1csc2ncccc12 (centres unmarked) [Example C65, 4-bromobenzyl 5-acetyl-2,6-dimethyl-4-(thieno[2,3-b]pyridin-3-yl)-1,4-dihydropyridine-3-carboxylate]",≥ 1,< 0.1
"CC(=O)C1=C(C)NC(C)=C(C(=O)OC(C)(C)c2ccccc2)C1c1csc2ncccc12 (centres unmarked) [Example C71, 2-phenylpropan-2-yl 5-acetyl-2,6-dimethyl-4-(thieno[2,3-b]pyridin-3-yl)-1,4-dihydropyridine-3-carboxylate]",≥ 1,< 0.1
"CC(=O)C1=C(C)NC(C)=C(C(=O)OCc2cccc(C#N)c2)C1c1csc2ncccc12 (centres unmarked) [Example C72, 3-Cyanobenzyl 5-acetyl-2,6-dimethyl-4-(thieno[2,3-b]pyridin-3-yl)-1,4-dihydropyridine-3-carboxylate]",≥ 1,< 0.1
"CC(=O)C1=C(C)NC(C)=C(C(=O)OCc2ccc(C#N)cc2)C1c1csc2ncccc12 (centres unmarked) [Example C73, 4-cyanobenzyl 5-acetyl-2,6-dimethyl-4-(thieno[2,3-b]pyridin-3-yl)-1,4-dihydropyridine-3-carboxylate]",≥ 1,< 0.1
"COC(=O)C1=C(C)NC(C=O)=C(C(=O)OC)C1c1csc2c(C#N)cccc12 (centres unmarked) [Example C119, Dimethyl 4-(7-cyanobenzo[b]thiophen-3-yl)-2-formyl-6-methyl-1,4-dihydropyridine-3,5-dicarboxylate]",≥ 1,< 0.1
"CC1=C(C#N)C(c2csc3c(C#N)cccc23)C(C(=O)OCC2CC2)=C(N)N1 (centres unmarked) [Example D24, cyclopropylmethyl 2-amino-5-cyano-4-(7-cyanobenzo[b]thiophen-3-yl)-6-methyl-1,4-dihydropyridine-3-carboxylate]",0.1 to 1,< 0.1

# The next lines start with the values.
IC50 (human androgen receptor) [µM],IC50 [1] [µM],SMILES
< 0.1,< 0.1,"CC(=O)C1=C(C)NC(C)=C(C(=O)OCC2CC2)C1c1csc2ncccc12 (centres unmarked) [Example C24, Cyclopropylmethyl 5-acetyl-2,6-dimethyl-4-(thieno[2,3-b]pyridin-3-yl)-1,4-dihydropyridine-3-carboxylate]"
0.1 to 1,< 0.1,"CC(=O)C1=C(C)NC(C)=C(C(=O)OC2CCCCC2)C1c1csc2ncccc12 (centres unmarked) [Example C36, Cyclohexyl 5-acetyl-2,6-dimethyl-4-(thieno[2,3-b]pyridin-3-yl)-1,4-dihydropyridine-3-carboxylate]"
0.1 to 1,< 0.1,"CC(=O)C1=C(C)NC(C)=C(C(=O)OCc2ccccc2)C1c1csc2ncccc12 (centres unmarked) [Example C39, Benzyl 5-acetyl-2,6-dimethyl-4-(thieno[2,3-b]pyridin-3-yl)-1,4-dihydropyridine-3-carboxylate]"
0.1 to 1,< 0.1,"CC(=O)C1=C(C)NC(C)=C(C(=O)OCc2ccncc2)C1c1csc2ccc(F)cc12 (centres unmarked) [Example C46, Pyridin-4-ylmethyl 5-acetyl-4-(5-fluorobenzo[b]thiophen-3-yl)-2,6-dimethyl-1,4-dihydropyridine-3-carboxylate]"
< 0.1,< 0.1,"CC(=O)C1=C(C)NC(C)=C(C(=O)OCc2cccnc2)C1c1csc2c(Br)cccc12 (centres unmarked) [Example C58, Pyridin-3-ylmethyl 5-acetyl-4-(7-bromobenzo[b]thiophen-3-yl)-2,6-dimethyl-1,4-dihydropyridine-3-carboxylate]"
0.1 to 1,< 0.1,"CC(=O)C1=C(C)NC(C)=C(C(=O)OCc2cccc(Br)c2)C1c1csc2ncccc12 (centres unmarked) [Example C66, 3-bromobenzyl 5-acetyl-2,6-dimethyl-4-(thieno[2,3-b]pyridin-3-yl)-1,4-dihydropyridine-3-carboxylate]"
< 0.1,< 0.1,"CC(=O)C1=C(C)NC(C)=C(C(=O)OCc2ccccc2Br)C1c1csc2ncccc12 (centres unmarked) [Example C67, 2-bromobenzyl 5-acetyl-2,6-dimethyl-4-(thieno[2,3-b]pyridin-3-yl)-1,4-dihydropyridine-3-carboxylate]"
0.1 to 1,< 0.1,"COC(=O)C1=C(C=O)NC(C2CC2)=C(C(=O)OC)C1c1csc2c(C#N)cccc12 (centres unmarked) [Example C117, Dimethyl 4-(7-cyanobenzo[b]thiophen-3-yl)-2-cyclopropyl-6-formyl-1,4-dihydropyridine-3,5-dicarboxylate]"
< 0.1,< 0.1,"COC(=O)C1=C(CO)NC(C2CC2)=C(C(=O)OC)C1c1csc2c(C#N)cccc12 (centres unmarked) [Example C118, Dimethyl 4-(7-cyanobenzo[b]thiophen-3-yl)-2-cyclopropyl-6-(hydroxymethyl)-1,4-dihydropyridine-3,5-dicarboxylate]"
